Assay results taken from paper doi:10.1101/2025.11.03.686228, “Design of Tissue-Selective PROTACs Through Recruiting E3 Ligase Scaffolding Protein MAGEA11” (bioRxiv, 2025).

Target: T1, BRD4 (first bromodomain, BRD4-BD1) (Homo sapiens, UniProt O60885)
T1 construct: BRD4-BD1 (first bromodomain)
Assay: fluorescence polarization competitive inhibition assay
Assay type: binding

Q: `Cc1sc2c(c1C)C(c1ccc(Cl)cc1)=N[C@@H](CC(=O)NCCOCCOCCOCCOCCOCCOCCOCCOCc1cn(-c3ccc4c(NCCCNCc5ccc6[nH]ccc6c5)ccnc4c3)nn1)c1nnc(C)n1-2` [105B] was tested. Which Ki did it give?
A: 14.9 ± 0.97 nM
